Tested on: patients with schizophrenia
Assay: Randomized, double-blind, placebo-controlled phase 3 clinical trial in schizophrenia
Format: in vivo, human
Description: A randomized, double-blind, placebo-controlled, phase 3 clinical trial was conducted with 450 patients with schizophrenia, aged 18 to 60 years, who were experiencing an acute exacerbation of psychosis. Patients were included if they were experiencing an acute exacerbation of psychosis, defined as a total score on the Brief Psychiatric Rating Scale of […] or higher, with a score of 4 or higher on 2 or more positive symptoms, and onset of the acute episode within 4 weeks of screening. Patients were required to have a score of 4 or higher, indicating moderate to severe disease severity, on the Clinical Global Impression-Severity of Illness (CGI-S) at screening and baseline. […]
The primary efficacy end point was mean change from baseline to day 28 in the Positive and Negative Syndrome Scale (PANSS) total score versus placebo. […] The PANSS subscale scores, social function, safety, and tolerability were also assessed. Primary and key secondary efficacy measures were assessed weekly. Safety was assessed by treatment-emergent adverse events (TEAEs), modified physical examinations, 12-lead electrocardiograms (ECGs), vital signs, and clinical laboratory tests (blood and urine samples for clinical laboratory analysis were collected from all subjects upon screening and on Days 1, 8, 28, and 33, following overnight fast).

In the case of `CN1CCN2c3c(cccc31)[C@@H]1CN(CCCC(=O)c3ccc(F)cc3)CC[C@@H]12` [Luma, lumateperone], the Symptoms of schizophrenia (patients with acute exacerbation of psychosis, 60 mg or 40 mg lumateperone tosylate once daily for 28 days vs placebo) is reported as “effective for improving the symptoms of schizophrenia” and the Safety profile (patients with schizophrenia, 60 mg or 40 mg lumateperone tosylate once daily for 28 days) is reported as “favorable safety profile”.

— patent US12414948B2, “Methods” (INTRA-CELLULAR THERAPIES, INC., priority 2022, dated 2025)
